In patent US12522614B2, “Topical phosphoinositide 3-kinase inhibitors” (VENTHERA, INC., priority 2019, dated 2026):
Entries after “also recorded” stand apart in the source; their conditions may differ.

Experiments:
[1] = Six-month stability study of topical gel formulations including Compound 1.002; format: physicochemical; details: 40° C./75% RH
Procedure: Unless otherwise indicated, a HPLC method was used to determine the content of Compound 1.002 and impurities; ASTM D 1544 was used as the standard test method for color of gel formulations; a gas chromatographic method was used to determine the content of oleic acid; and Brookfield viscometer was used to measure viscosity (cP) of gel formulations.
(§1) The gel formulation in HPLC glass vials was subjected to stability study at 40° C./75%0 RH for 6 months. A purity of Compound 1.002 on month 0, 1, 3, and 6 month at 40° C./75% RH was determined by HPLC. The detected impurity of Compound 1.002 appears to be the hydrolysis product, as MTPP. Table 21 represents stability data of Compound 1.002 in the topical formulation having 1000 oleic acid. […]
as §1, with “Lablabo Amcor Foil 18 mL containers” for “HPLC glass vials”, “C./75%” for “C./75%0”, “3, 4, 5,” for “3,”, “25” for “21”, “10%” for “1000”, “alcohol and 40% DPG.” for “acid.”

[2] = In vitro human skin permeation study of topical gel formulations (Franz diffusion cells); format: in vitro ADME; details: Study-1, Example 8 gel, human skin
Source text: The gel formulation of Example 8 was used as the donor phase to determine the permeation of Compound 1.002 through human skin and its effectiveness as a topical application. Three skin donors and three diffusion cells (for each donor) per formulation were used in the in vitro skin permeation experiments. Split thickness dermatomed (approximately at […] thickness) human cadaver skin, supplied by New York Firefighters Skin Bank, NY, was used to determine the permeation rate of the tested compound (i.e., the drug) in vitro. All in vitro skin permeation studies were conducted using the Vertical Diffusion Cells assembly with consoles (Model FDC-6), and heating controllers (Logan Instruments Inc. Somerset, NJ). Each assembly consisted of six vertical, jacketed (37° C.±0.5° C.) 12-mL Franz diffusion cells with magnetic stirrer and 1.767 cm^2 diffusion area.
Skin flux studies were run for a period of 48 hours. At predetermined intervals (2, 4, 8, 24 and 48 hours) after starting the experiment, the entire contents of the receiver compartment were collected for determining concentrations of the drug by HPLC. The receiver compartment was refilled with fresh receiver medium. The receiver medium was pH 7.4 phosphate buffer with 0.5 mg/ml of Oleath 20 with the saturation concentration of the drug in the receptor medium being 0.152 mg/ml. This solubility of the drug in the receiver medium was enough to ensure sink conditions throughout each collection interval.
Samples of the receptor phase were obtained at 2, 4, 8, 12, 24 and 48 h and concentrations of Compound 1.002 and 3-(4-morpholinothieno(3,2-d)pyrimidin-2-yl)phenol (metabolite of Compound 1.002, abbreviated as MTPP) were determined using a validated HPLC method. The metabolism of Compound 1.002 to MTPP takes place in the human skin by esterase enzymes.
HPLC method: Column—Gemini C-18 4.6×150 mm, 5 μm particle size; Mobile Phase—water:acetonitrile 25:75 containing 0.1% TFA; Flow Rate—1 mL/min; Detection—274 nm; Column Temperature—40° C.; and Run Time—10 min. The retention times for MTPP and Compound 1.002 were 3.9 and 7.2 minutes, respectively.
The skin flux of drugs and cumulative amount of drugs permeated (sum of MTPP and Compound 1.002) for a period of 48 hours were calculated and are shown in Table 3. FIG. 3 represents a plot of Cumulative amount permeated versus time.

[3] = Table 20 gel (10% oleic acid, DPG), HPLC glass vials, month 0
[4] = Table 20 gel (10% oleic acid, DPG), HPLC glass vials, month 1
[5] = Table 20 gel (10% oleic acid, DPG), HPLC glass vials, month 3
[6] = Table 20 gel (10% oleic acid, DPG), HPLC glass vials, month 6
[7] = Table 24 gel (10% oleyl alcohol, 40% DPG), Lablabo Amcor Foil 18 mL containers, month 0
[8] = Table 24 gel (10% oleyl alcohol, 40% DPG), Lablabo Amcor Foil 18 mL containers, month 1
[9] = Table 24 gel (10% oleyl alcohol, 40% DPG), Lablabo Amcor Foil 18 mL containers, month 3
[10] = Table 24 gel (10% oleyl alcohol, 40% DPG), Lablabo Amcor Foil 18 mL containers, month 4
[11] = Table 24 gel (10% oleyl alcohol, 40% DPG), Lablabo Amcor Foil 18 mL containers, month 5
[12] = Table 24 gel (10% oleyl alcohol, 40% DPG), Lablabo Amcor Foil 18 mL containers, month 6

Appearance [1, 3]: Clear,; also recorded: no crystals | Compound 1.002 Relative Purity [1, 3]: 100.0% | Compound 1.002 content [1, 3]: 106.6 mg/mL | MTPP (Relative Purity) [1, 3]: 0.0% | Other impurity (Relative Purity) [1, 3]: 0.0% | Viscosity [1, 3]: 11,800 cP | Appearance [1, 4]: Clear,; also recorded: no crystals | Compound 1.002 Relative Purity [1, 4]: 98.4% | Compound 1.002 content [1, 4]: 106.0 mg/mL | MTPP (Relative Purity) [1, 4]: 1.2% | Other impurity (Relative Purity) [1, 4]: 0.4% | Viscosity [1, 4]: 12,600 cP | Appearance [1, 5]: Clear,; also recorded: no crystals | Compound 1.002 Relative Purity [1, 5]: 97.5% | Compound 1.002 content [1, 5]: 107.0 mg/mL | MTPP (Relative Purity) [1, 5]: 2.5% | Other impurity (Relative Purity) [1, 5]: 0.0% | Viscosity [1, 5]: 11,780 cP | Appearance [1, 6]: Clear,; also recorded: no crystals | Compound 1.002 Relative Purity [1, 6]: 95.1% | Compound 1.002 content [1, 6]: 109.1 mg/mL | MTPP (Relative Purity) [1, 6]: 4.9% | Other impurity (Relative Purity) [1, 6]: 0.0% | Viscosity [1, 6]: 12,760 cP | Compound 1.002 Relative Purity [1, 7]: 100% | Compound 1.002 content [1, 7]: 65.9 mg/mL | MTPP (Relative Purity) [1, 7]: 0.0% | Visual Appearance [1, 7]: no crystals | Compound 1.002 Relative Purity [1, 8]: 98.9% | Compound 1.002 content [1, 8]: 66.5 mg/mL | MTPP (Relative Purity) [1, 8]: 1.1% | Visual Appearance [1, 8]: no crystals | Compound 1.002 Relative Purity [1, 9]: 99.0% | Compound 1.002 content [1, 9]: 65.9 mg/mL | MTPP (Relative Purity) [1, 9]: 1.0% | Visual Appearance [1, 9]: no crystals | Compound 1.002 Relative Purity [1, 10]: 97.0% | Compound 1.002 content [1, 10]: 66.5 mg/mL | MTPP (Relative Purity) [1, 10]: 3.0% | Visual Appearance [1, 10]: no crystals | Compound 1.002 Relative Purity [1, 11]: 97.3% | Compound 1.002 content [1, 11]: 67.8 mg/mL | MTPP (Relative Purity) [1, 11]: 2.7% | Visual Appearance [1, 11]: no crystals | Compound 1.002 Relative Purity [1, 12]: 90.0% | Compound 1.002 content [1, 12]: 51.1 mg/mL | MTPP (Relative Purity) [1, 12]: 10.0% | Visual Appearance [1, 12]: no crystals | Hydrolysis of Cmpd. 1.002 to MTPP ([2]; Donor 2, 4 h): 100% | Cumulative permeation, Cmpd. 1.002 ([2]; Donor 3, 2 h): 0.00 μg/cm^2
Structure (SMILES): CC(=O)Oc1cccc(-c2nc(N3CCOCC3)c3sccc3n2)c1 [Compound 1.002, 3-(4-Morpholinothieno[3,2-d]pyrimidin-2-yl)phenyl Acetate]
